From paper PMC3172300, “Modulation of Catalytic Activity in Multi-Domain Protein Tyrosine Phosphatases” (PLoS ONE, 2011)
Several values for one entry are separate records, joined by “and”; a condition that tells them apart may be missing. Identical values can stand only once. Like-named read-outs stand apart in the source and are kept apart here. Square brackets hold non-standard residues; d marks the D form. Peptide text beside a SMILES is read from it. pY = N[C@@H](Cc1ccc(OP(=O)(O)O)cc1)C(=O)O

Columns and labels:
DLAR D1D2 = target: T1, DLAR D1D2 (Drosophila melanogaster, UniProt P16621); assay: Surface Plasmon Resonance peptide binding, DLAR D1D2; settings: two-site model, read-out: ka
T1 construct: DLAR 1448-2029; His tag (pET-15b or pET-22b); made in house; host or cells: E. coli BL21(DE3)
T1 sequence (P16621 1448-2029): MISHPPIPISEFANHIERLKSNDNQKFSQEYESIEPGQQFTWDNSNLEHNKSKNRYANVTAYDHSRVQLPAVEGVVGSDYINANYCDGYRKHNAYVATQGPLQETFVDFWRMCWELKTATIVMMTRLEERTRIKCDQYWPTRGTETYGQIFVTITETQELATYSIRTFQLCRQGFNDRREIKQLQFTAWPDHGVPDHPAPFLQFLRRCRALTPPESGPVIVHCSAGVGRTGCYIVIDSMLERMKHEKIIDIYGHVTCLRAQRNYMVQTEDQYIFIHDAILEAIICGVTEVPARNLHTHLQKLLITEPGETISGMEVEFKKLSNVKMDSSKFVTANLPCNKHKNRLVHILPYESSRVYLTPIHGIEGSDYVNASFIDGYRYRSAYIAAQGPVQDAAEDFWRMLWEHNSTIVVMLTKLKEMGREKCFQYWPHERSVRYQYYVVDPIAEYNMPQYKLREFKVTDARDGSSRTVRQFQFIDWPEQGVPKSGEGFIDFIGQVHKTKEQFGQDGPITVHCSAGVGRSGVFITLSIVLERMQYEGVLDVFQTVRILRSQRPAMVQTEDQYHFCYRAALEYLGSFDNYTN
Protocol: The binding of phosphotyrosine peptides to the PTP domains was studied by Surface Plasmon Resonance on a Biacore-2000 instrument (BIAcore, AB). All experiments were conducted at 25°C. DLAR PTP domains were immobilized onto carboxylated dextran CM5 chips (BIAcore AB) using the standard amine coupling procedure as recommended by the manufacturer. Binding and kinetic assays were performed in 10 mM HEPES, pH 8.0, 150 mM NaCl, 10 mM DTT and 3 mM EDTA at a flow rate of 5 µL/min. The peptides were used at concentrations ranging from 50–700 µM. Dissociation was initiated by replacing the analyte with buffer. The association and dissociation curves were monitored for 600 sec. Sensograms were analyzed with BIA-evaluation software version 2 (BIAcore AB). Sensograms for DLAR D1D2, DLAR D1HSSD2 and DLAR D1D2HSS were fitted to two-site binding equations. DLAR D1 and DLAR D2 sensograms were fitted using a single-site binding model.

PTP99A D1D2 = target: T2, PTP99A D1D2 (Drosophila melanogaster, UniProt P35832); assay: Phosphatase assay using pNPP, PTP99A D1D2; format: biochemical; parameters: PTP99A 450-1050; His tag (pET-15b or pET-22b); made in house; host or cells: E. coli BL21(DE3); settings: CGH buffer pH 6.5, 100 mM NaCl, 2 mM DTT
T2 sequence (P35832 450-1050): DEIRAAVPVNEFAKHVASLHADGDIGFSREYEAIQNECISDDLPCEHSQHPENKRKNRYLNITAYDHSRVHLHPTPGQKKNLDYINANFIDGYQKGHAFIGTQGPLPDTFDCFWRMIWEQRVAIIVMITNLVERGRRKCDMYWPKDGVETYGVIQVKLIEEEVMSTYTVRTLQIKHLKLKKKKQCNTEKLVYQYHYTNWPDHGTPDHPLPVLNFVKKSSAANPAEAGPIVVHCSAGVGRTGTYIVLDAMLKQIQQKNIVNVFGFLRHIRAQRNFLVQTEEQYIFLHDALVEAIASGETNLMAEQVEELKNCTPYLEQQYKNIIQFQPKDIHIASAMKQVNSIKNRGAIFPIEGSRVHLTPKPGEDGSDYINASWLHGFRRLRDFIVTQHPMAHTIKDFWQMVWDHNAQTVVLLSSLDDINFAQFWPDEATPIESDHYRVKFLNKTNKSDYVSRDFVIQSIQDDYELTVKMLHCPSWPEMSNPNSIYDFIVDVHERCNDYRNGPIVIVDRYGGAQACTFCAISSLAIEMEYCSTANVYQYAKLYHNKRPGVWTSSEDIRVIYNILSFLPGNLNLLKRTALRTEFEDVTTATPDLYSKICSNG
Protocol: Phosphatase activity of the recombinant PTP domains was determined by using para-Nitrophenylphosphate (pNPP), a small molecule generic substrate, as well as phosphotyrosine containing peptides. The pNPP assay was performed as reported previously, with a modification in the buffer composition (25 mM Citrate, Glycine and HEPES (CGH), pH 6.5, 100 mM NaCl and 2 mM DTT). Phosphatase activity with the phosphotyrosine peptides was ascertained by the malachite green reaction as described for PTPs previously. Briefly, the reaction mixture comprised of 0.01 µM protein incubated with increasing concentrations of different peptides in 25 mM citrate buffer pH 6.0, 100 mM NaCl and 2 mM DTT for 15 min at 25°C. The reaction was stopped by the addition of the Biomol Green reagent (Enzo Life Sciences) and the colour developed after 20 min was quantified at 650 nm. For all the assays, kinetic constants for the steady state catalysis were obtained by fitting the reaction curves to the Michaelis-Menten equation using the nonlinear regression module of Sigma plot software (Systat Software, Inc.).
The tandem PTP domains of PTP99A (PTP99A D1D2) and DLAR (DLAR D1D2) , the individual PTP domains (D1 and D2) as well as the active site mutants were expressed in E. coli and were purified using the protocols described earlier (Figure 1a, Figure S1a, b & c). The biochemical characterization and catalytic activity measurements were performed using pNPP as a substrate. […] Thus the D2 domain appears to have a regulatory role in both RPTPs- decreasing the catalytic activity in the case of DLAR while increasing the catalytic activity in the case of PTP99A (Figure 1b).

Row | SMILES | kon (DLAR D1D2; pH 8, SPR Biacore-2000, 25°C, 10 mM HEPES pH 8.0, 150 mM NaCl, 10 mM DTT, 3 mM EDTA, peptides 50–700 µM, first binding site) [M⁻¹ s⁻¹] | kon (DLAR D1D2; pH 8, SPR, 25°C, pH 8.0, second binding site) [M⁻¹ s⁻¹] | Kcat (PTP99A D1D2) [s⁻¹] | Kcat/Km (PTP99A D1D2) | Vmax (PTP99A D1D2; Michaelis-Menten fit)
1 | CC(C)C[C@H](NC(=O)[C@H](C)NC(=O)CNC(=O)[C@H](Cc1ccc(OP(=O)(O)O)cc1)NC(=O)[C@H](CC(=O)O)NC(=O)[C@@H]1CCCN1C(=O)[C@H](CCC(=O)O)NC(=O)[C@H](C)NC(=O)[C@@H](N)[C@@H](C)O)C(=O)N[C@@H](Cc1ccc(O)cc1)C(=O)N[C@@H](CCC(=O)O)C(=O)O [Cuticle peptide] (H-TAEPD[pY]GALYE-OH) | 32.6 ± 1.57 | 16500 ± 2.3e+07 | – | – | –
2 | O=[N+]([O-])c1ccc(OP(=O)(O)O)cc1 [pNPP, para-Nitrophenylphosphate] | – | – | 33.80 ± 0.59 | 14.92 ± 0.98 x 10^3 sec^-1M^-1 | 24.89 µmol/min/mg and 24.89 ± 0.52 µmol/min/mg
